In publication PMC2680961, “Homologous desensitization of signalling by the alpha (α) isoform of the human thromboxane A2 receptor: A specific role for nitric oxide signalling” (Biochimica et Biophysica Acta, 2007):

What was measured:
[1] = set-up: method as in PMID 10508233; conditions: rapidly hydrolysed to inactive metabolite TXB2; estimated; cited from earlier work
eNOS = eNOS phosphorylation (anti-phospho eNOS^Ser1177 western blot); type: cell-based, human; conditions: HEK.TPα cells (also HEK 293, HEK.TPβ); 1 μM U46619 or 10 U/ml Thrombin, 5 min, 37 °C
Experimental: In order to assess eNOS phosphorylation, HEK.TPα, HEK.TPβ or HEK 293 cells (2 × 10^6 cells/10-cm dish) were plated some 48 h prior to experimentation. Cells were incubated with vehicle, 1 μM U46619 or 10 U/ml Thrombin for 5 min at 37 °C and aliquots of whole cell protein (100 μg/lane) were analysed by SDS-PAGE/western blot. Blots were initially screened using the anti-phospho eNOS^1177 as per supplier's instructions (Cell Signalling Technology) and, following stripping, were subsequently re-screened using the anti-eNOS (Transduction Laboratories).

Compound | half-life [1] [s] | eNOS phosphorylation at Ser^1177 (eNOS)
CCCCC[C@H](O)/C=C/[C@H]1O[C@H]2C[C@H](O2)[C@@H]1C/C=C\CCCC(=O)O [TXA2] | 30 | –
thrombin | – | readily lead to eNOS phosphorylation
